From patent US6906095B2, “Indolylalkylidenehydrazine-carboximidamide derivatives as 5-hydroxytryptamine-6 ligands” (Wyeth, priority 2002, dated 2005)

Biological target: T1, human cloned 5-HT6 receptors (Homo sapiens, UniProt P50406)
T1 construct: expressed in transfected cells; host or cells: Hela cells
Experiment: 5-HT6 binding affinity, [3H]-LSD displacement in membranes of Hela cells
Settings: not given
Description: The affinity of test compounds for the serotonin 5-HT6 receptor is evaluated in the following manner. Cultured Hela cells expressing human cloned 5-HT6 receptors are harvested and centrifuged at low speed (1,000×g) for 10.0 min to remove the culture media. The harvested cells are suspended in half volume of fresh physiological phosphate buffered saline solution and recentrifuged at the same speed. This operation is repeated. The collected cells are then homogenized in ten volumes of 50 mM Tris.HCl (pH 7.4) and 0.5 mM EDTA. The homogenate is centrifuged at 40,000×g for 30.0 min and the precipitate is collected. The obtained pellet is resuspended in 10 volumes of Tris.HCl buffer and recentrifuged at the same speed. The final pellet is suspended in a small volume of Tris.HCl buffer and the tissue protein content is determined in aliquots of 10-25 μl volumes. Bovine Serum Albumin is used as the standard in the protein determination according to the method described in Lowry et al., J. Biol. Chem., 193:265 (1951). The volume of the suspended cell membranes is adjusted to give a tissue protein concentration of 1.0 mg/ml of suspension. The prepared membrane suspension (10 times concentrated) is aliquoted in 1.0 ml volumes and stored at −70° C. until used in subsequent binding experiments.
The reaction is allowed to proceed in the dark for 120 min at room temperature, at which time, the bound ligand-receptor complex is filtered off on a 96 well unifilter with a Packard Filtermate® 196 Harvester. The bound complex caught on the filter disk is allowed to air dry and the radioactivity is measured in a Packard TopCount® equipped with six photomultiplier detectors, after the addition of 40.0 μl Microscint®-20 scintillant to each shallow well. The unifilter plate is heat-sealed and counted in a PackardTopCount® with a tritium efficiency of 31.0%.
Specific binding to the 5-HT6 receptor is defined as the total radioactivity bound less the amount bound in the presence of 10.0 μM unlabeled methiothepin. Binding in the presence of varying concentrations of test compound is expressed as a percentage of specific binding in the absence of test compound. The results are plotted as logit % bound versus log concentration of test compound. Nonlinear regression analysis of data points with a computer assisted program Prism® yields both the IC50 and the Ki values of test compounds with 95% confidence limits.
The amount of displacement by the test compound is given in percent (%) inhibition and is derived from the following equation: [formula] where B0 is the amount of CPM bound in the presence of the testing agent. NSB represents the CPM bound in the presence of a saturating concentration of a displacer and TB represents the total amount of CPM bound at zero (0) concentration of test compound.
Alternatively, a linear regression line of decline of data points is plotted, from which the IC50 value can be read off and the Ki value determined by solving the following equation: [formula] where L is the concentration of the radioactive ligand used and KD is the dissociation constant of the ligand for the receptor, both expressed in nM.

T1 sequence (P50406 whole entry): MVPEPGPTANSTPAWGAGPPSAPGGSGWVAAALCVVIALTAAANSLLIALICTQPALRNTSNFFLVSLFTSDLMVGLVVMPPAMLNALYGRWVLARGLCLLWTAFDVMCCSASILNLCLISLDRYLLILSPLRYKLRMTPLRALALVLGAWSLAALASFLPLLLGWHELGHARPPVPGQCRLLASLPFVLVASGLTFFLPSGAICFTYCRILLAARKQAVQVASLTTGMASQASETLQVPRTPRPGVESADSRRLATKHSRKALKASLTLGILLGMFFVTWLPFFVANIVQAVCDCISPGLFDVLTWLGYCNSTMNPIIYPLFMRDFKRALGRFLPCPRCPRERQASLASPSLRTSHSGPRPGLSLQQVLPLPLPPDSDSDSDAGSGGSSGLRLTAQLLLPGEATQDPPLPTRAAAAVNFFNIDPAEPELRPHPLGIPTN

Structure (SMILES)	Ki [nM]
CCC(=NNC(=N)N)c1cn(S(=O)(=O)c2ccccc2)c2ccc(F)cc12 [Example 118, 2-{1-[5-fluoro-1-(phenylsulfonyl)-1H-indol-3-yl]propylidene}hydrazinecarboximidamide]	7
CC(=NNC(=N)N)c1cn(S(C)(=O)=O)c2cc(F)ccc12 [Example 100, 2-{1-[6-fluoro-1-(methylsulfonyl)-1H-indol-3-yl]ethylidene}hydrazinecarboximidamide]	18
CC(=NNC(=N)N)c1cn(S(=O)(=O)c2ccc(Cl)s2)c2ccccc12 [Example 37, 2-(1-{1-[(5-chlorothien-2-yl)sulfonyl]-1H-indol-3-yl}ethylidene)hydrazinecarboximidamide]	25
CC(=NNC(=N)N)c1cn(S(=O)(=O)c2c(Cl)nc3sccn23)c2ccccc12 [Example 36, 2-(1-{1-[(6-chloroimidazo[2,1-b][1,3]thiazol-5-yl)sulfonyl]-1H-indol-3-yl}ethylidene)hydrazinecarboximidamide]	8
CCC(=NNC(=N)N)c1cn(S(=O)(=O)c2ccc3ccccc3c2)c2ccc(Cl)cc12 [Example 122, 2-{1-[5-chloro-1-(2-naphthylsulfonyl)-1H-indol-3-yl]propylidene}hydrazinecarboximidamide]	101

Same assay, conditions: test compound dose 10 nM; [3H]-LSD 3.0 nM

Structure (SMILES)	inhibition at 0.01 µM [%]
CC(=NNC(=N)N)c1cn(S(=O)(=O)c2ccccc2)c2ccc(C#N)cc12 [Example 16, 2-{1-[5-cyano-1-(phenylsulfonyl)-1H-indol-3-yl]ethylidene}hydrazinecarboximidamide]	40.6
CCCCS(=O)(=O)n1cc(C(=NNC(=N)N)C2CC2)c2cc(Cl)ccc21 [Example 77, 2-[[1-(butylsulfonyl)-5-chloro-1H-indol-3-yl](cyclopropyl)methylidene]hydrazinecarboximidamide]	44.3

Same assay, conditions: test compound dose 100 nM; [3H]-LSD 3.0 nM

Structure (SMILES)	inhibition at 0.1 µM [%]
CC(=NNC(=N)N)c1cn(S(=O)(=O)c2ccccc2)c2ccc(F)cc12 [Example 19, 2-{1-[5-fluoro-1-(phenylsulfonyl)-1H-indol-3-yl]ethylidene}hydrazinecarboximidamide]	82.4
CC(=NNC(=N)N)c1cn(S(=O)(=O)c2ccccc2[N+](=O)[O-])c2ccccc12 [Example 51, 2-(1-{1-[(2-nitrophenyl)sulfonyl]-1H-indol-3-yl}ethylidene)hydrazinecarboximidamide]	70.1
CC(=NNC(=N)N)c1cn(S(=O)(=O)c2cccc3c(N(C)C)cccc23)c2ccccc12 [Example 38, 2-[1-(1-{[5-(dimethylamino)-1-naphthyl]sulfonyl}-1H-indol-3-yl)ethylidene]hydrazinecarboximidamide]	25.8
CS(=O)(=O)n1cc(C(=NNC(=N)N)C2CC2)c2cc(Cl)ccc21 [Example 74, 2-[[5-chloro-1-(methylsulfonyl)-1H-indol-3-yl](cyclopropyl)methylidene]hydrazinecarboximidamide]	68.5
CC(=NNC(=N)N)c1cn(S(C)(=O)=O)c2cc(F)ccc12 [Example 100, 2-{1-[6-fluoro-1-(methylsulfonyl)-1H-indol-3-yl]ethylidene}hydrazinecarboximidamide]	83.8
COc1ccc(S(=O)(=O)n2cc(C(=NNC(=N)N)C3CC3)c3ccccc32)cc1 [Example 63, 2-(cyclopropyl{1-[(4-methoxyphenyl)sulfonyl]-1H-indol-3-yl}methylidene)hydrazinecarboximidamide]	58.9
CC(=NNC(=N)N)c1cn(S(=O)(=O)c2ccc(Cl)s2)c2ccccc12 [Example 37, 2-(1-{1-[(5-chlorothien-2-yl)sulfonyl]-1H-indol-3-yl}ethylidene)hydrazinecarboximidamide]	75.2
CC(=NNC(=N)N)c1cn(S(=O)(=O)c2c(Cl)nc3sccn23)c2ccccc12 [Example 36, 2-(1-{1-[(6-chloroimidazo[2,1-b][1,3]thiazol-5-yl)sulfonyl]-1H-indol-3-yl}ethylidene)hydrazinecarboximidamide]	86.4
CCCNC(=N)NN=C(C)c1cn(S(=O)(=O)c2ccccc2)c2ccccc12 [Example 124, 2-{1-[1-(phenylsulfonyl)-1H-indol-3-yl]ethylidene}-N-propylhydrazinecarboximidamide]	75.2
COc1ccc(S(=O)(=O)n2cc(C(=NNC(=N)N)C3CC3)c3ccc(F)cc32)cc1OC [Example 117, 2-(cyclopropyl{1-[(3,4-dimethoxyphenyl)sulfonyl]-6-fluoro-1H-indol-3-yl}methylidene)hydrazinecarboximidamide]	78.2
CC(=NNC(=N)N)c1cn(S(=O)(=O)c2sc(Cl)cc2Br)c2ccccc12 [Example 29, 2-(1-{1-[(3-bromo-5-chlorothien-2-yl)sulfonyl]-1H-indol-3-yl}ethylidene)hydrazinecarboximidamide]	60.3
COc1ccc2c(c1)c(C=NNC(=N)N)cn2S(=O)(=O)c1ccccc1 [Example 20, 2-{[5-methoxy-1-(phenylsulfonyl)-1H-indol-3-yl]methylidene}hydrazinecarboximidamide]	76.3
N=C(N)NN=C(c1cn(S(=O)(=O)c2ccc3ccccc3c2)c2cc(F)ccc12)C1CC1 [Example 111, 2-{cyclopropyl[6-fluoro-1-(2-naphthylsulfonyl)-1H-indol-3-yl]methylidene}hydrazinecarboximidamide]	27.6
CCCCC(=NNC(=N)N)c1cn(S(=O)(=O)c2ccccc2)c2ccc(Cl)cc12 [Example 85, 2-{1-[5-chloro-1-(phenylsulfonyl)-1H-indol-3-yl]pentylidene}hydrazinecarboximidamide]	57.5

Same assay, conditions: test compound dose 1000 nM; [3H]-LSD 3.0 nM; read-out: % Inhibition

Structure (SMILES)	inhibition at 1 µM [%]
CC(=NNC(=N)N)c1c(-c2ccc(Cl)cc2)n(S(C)(=O)=O)c2ccccc12 [Example 90, 2-{1-[2-(4-chlorophenyl)-1-(methylsulfonyl)-1H-indol-3-yl]ethylidene}hydrazinecarboximidamide]	63.5
CCCCC(=NNC(=N)N)c1c(-c2ccc(Cl)cc2)n(S(=O)(=O)c2ccccc2)c2ccccc12 [Example 96, 2-{1-[2-(4-chlorophenyl)-1-(phenylsulfonyl)-1H-indol-3-yl]pentylidene}hydrazinecarboximidamide]	20
CCCCC(=NNC(=N)N)c1cn(S(=O)(=O)c2ccc(OC)cc2)c2ccc(Cl)cc12 [Example 79, 2-(1-{5-chloro-1-[(4-methoxyphenyl)sulfonyl]-1H-indol-3-yl}pentylidene)hydrazinecarboximidamide]	61
COc1ccc(S(=O)(=O)n2cc(C(C)=NNC(=N)N)c3ccc(F)cc32)cc1 [Example 106, 2-(1-{6-fluoro-1-[(4-methoxyphenyl)sulfonyl]-1H-indol-3-yl}ethylidene)hydrazinecarboximidamide]	64.4
CCCCC(=NNC(=N)N)c1cn(S(=O)(=O)c2ccc(OC)c(OC)c2)c2ccc(Cl)cc12 [Example 88, 2-(1-{5-chloro-1-[(3,4-dimethoxyphenyl)sulfonyl]-1H-indol-3-yl}pentylidene)hydrazinecarboximidamide]	65.6
COc1ccc(S(=O)(=O)n2cc(C(C)=NNC(=N)N)c3cc(Cl)ccc32)cc1 [Example 78, 2-(1-{5-chloro-1-[(4-methoxyphenyl)sulfonyl]-1H-indol-3-yl}ethylidene)hydrazinecarboximidamide]	85.5
COc1ccc(S(=O)(=O)n2cc(C(C)=NNC(=N)N)c3ccc(F)cc32)cc1OC [Example 115, 2-(1-{1-[(3,4-dimethoxyphenyl)sulfonyl]-6-fluoro-1H-indol-3-yl}ethylidene)hydrazinecarboximidamide]	89.2
CCCCC(=NNC(=N)N)c1cn(S(=O)(=O)c2ccc(OC)cc2)c2cc(F)ccc12 [Example 107, 2-(1-{6-fluoro-1-[(4-methoxyphenyl)sulfonyl]-1H-indol-3-yl}pentylidene)hydrazinecarboximidamide]	61.5
CCCCC(=NNC(=N)N)c1cn(S(C)(=O)=O)c2ccc(Cl)cc12 [Example 73, 2-{1-[5-chloro-1-(methylsulfonyl)-1H-indol-3-yl]pentylidene}hydrazinecarboximidamide]	71
CCCCC(=NNC(=N)N)c1cn(S(=O)(=O)CCCC)c2cc(F)ccc12 [Example 104, 2-{1-[1-(butylsulfonyl)-6-fluoro-1H-indol-3-yl]pentylidene}hydrazinecarboximidamide]	81.3
COc1ccc(S(=O)(=O)n2c(-c3ccc(Cl)cc3)c(C(C)=NNC(=N)N)c3ccccc32)cc1OC [Example 98, 2-(1-{2-(4-chlorophenyl)-1-[(3,4-dimethoxyphenyl)sulfonyl]-1H-indol-3-yl}ethylidene)hydrazinecarboximidamide]	53.3
